Earlier results, collected in article PMC8253220, “Molecular design, synthesis and in vitro biological evaluation of thienopyrimidine–hydroxamic acids as chimeric kinase HDAC inhibitors: a challenging approach to combat cancer” (Journal of Enzyme Inhibition and Medicinal Chemistry, 2021).
Read-outs that look alike come from different tables or passages of the source.

Experiments:
HER2 = details: Figure 2; cited from earlier work
EGFR = EGFR (Homo sapiens, UniProt P00533); details: cited from earlier work
VEGFR2 = details: cited from earlier work
HDAC = details: Figure 2; cited from earlier work
HDAC6 = molecular target: T1, HDAC6 (Homo sapiens, UniProt Q9UBN7); details: Figure 2; cited from earlier work
T1 construct: purchased BPS Bioscience 50006
T1 sequence (Q9UBN7 1-1215): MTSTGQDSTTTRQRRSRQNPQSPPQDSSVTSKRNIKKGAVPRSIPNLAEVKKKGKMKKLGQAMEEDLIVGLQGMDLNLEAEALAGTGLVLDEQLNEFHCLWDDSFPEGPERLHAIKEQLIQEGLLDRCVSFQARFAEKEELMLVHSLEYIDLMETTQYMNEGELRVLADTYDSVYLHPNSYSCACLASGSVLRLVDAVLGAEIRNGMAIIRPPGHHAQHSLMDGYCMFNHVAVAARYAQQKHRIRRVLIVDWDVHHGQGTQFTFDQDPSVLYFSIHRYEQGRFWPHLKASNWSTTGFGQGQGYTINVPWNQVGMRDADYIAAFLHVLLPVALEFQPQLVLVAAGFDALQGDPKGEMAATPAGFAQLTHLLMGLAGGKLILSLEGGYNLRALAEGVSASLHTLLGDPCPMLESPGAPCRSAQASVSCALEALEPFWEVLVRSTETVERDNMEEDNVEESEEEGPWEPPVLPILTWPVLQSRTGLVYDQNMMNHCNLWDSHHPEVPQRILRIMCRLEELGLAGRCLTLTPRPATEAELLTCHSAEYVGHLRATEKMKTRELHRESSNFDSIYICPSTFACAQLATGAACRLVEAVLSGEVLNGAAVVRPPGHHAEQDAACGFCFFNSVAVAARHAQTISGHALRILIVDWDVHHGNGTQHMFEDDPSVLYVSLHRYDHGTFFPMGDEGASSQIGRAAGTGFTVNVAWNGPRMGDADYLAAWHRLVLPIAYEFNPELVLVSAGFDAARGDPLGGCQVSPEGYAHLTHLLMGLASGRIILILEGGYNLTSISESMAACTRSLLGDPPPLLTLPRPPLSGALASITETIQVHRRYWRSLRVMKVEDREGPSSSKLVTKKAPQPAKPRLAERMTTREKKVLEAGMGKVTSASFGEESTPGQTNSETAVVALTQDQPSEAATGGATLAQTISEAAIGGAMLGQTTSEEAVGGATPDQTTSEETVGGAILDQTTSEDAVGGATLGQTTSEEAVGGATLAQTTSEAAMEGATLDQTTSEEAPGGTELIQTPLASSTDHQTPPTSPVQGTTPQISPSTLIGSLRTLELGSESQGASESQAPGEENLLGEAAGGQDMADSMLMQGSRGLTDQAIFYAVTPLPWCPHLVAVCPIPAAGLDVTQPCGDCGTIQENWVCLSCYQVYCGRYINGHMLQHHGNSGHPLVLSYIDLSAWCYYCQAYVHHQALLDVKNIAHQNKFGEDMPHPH

EGFR, sequence (P00533 25-1210): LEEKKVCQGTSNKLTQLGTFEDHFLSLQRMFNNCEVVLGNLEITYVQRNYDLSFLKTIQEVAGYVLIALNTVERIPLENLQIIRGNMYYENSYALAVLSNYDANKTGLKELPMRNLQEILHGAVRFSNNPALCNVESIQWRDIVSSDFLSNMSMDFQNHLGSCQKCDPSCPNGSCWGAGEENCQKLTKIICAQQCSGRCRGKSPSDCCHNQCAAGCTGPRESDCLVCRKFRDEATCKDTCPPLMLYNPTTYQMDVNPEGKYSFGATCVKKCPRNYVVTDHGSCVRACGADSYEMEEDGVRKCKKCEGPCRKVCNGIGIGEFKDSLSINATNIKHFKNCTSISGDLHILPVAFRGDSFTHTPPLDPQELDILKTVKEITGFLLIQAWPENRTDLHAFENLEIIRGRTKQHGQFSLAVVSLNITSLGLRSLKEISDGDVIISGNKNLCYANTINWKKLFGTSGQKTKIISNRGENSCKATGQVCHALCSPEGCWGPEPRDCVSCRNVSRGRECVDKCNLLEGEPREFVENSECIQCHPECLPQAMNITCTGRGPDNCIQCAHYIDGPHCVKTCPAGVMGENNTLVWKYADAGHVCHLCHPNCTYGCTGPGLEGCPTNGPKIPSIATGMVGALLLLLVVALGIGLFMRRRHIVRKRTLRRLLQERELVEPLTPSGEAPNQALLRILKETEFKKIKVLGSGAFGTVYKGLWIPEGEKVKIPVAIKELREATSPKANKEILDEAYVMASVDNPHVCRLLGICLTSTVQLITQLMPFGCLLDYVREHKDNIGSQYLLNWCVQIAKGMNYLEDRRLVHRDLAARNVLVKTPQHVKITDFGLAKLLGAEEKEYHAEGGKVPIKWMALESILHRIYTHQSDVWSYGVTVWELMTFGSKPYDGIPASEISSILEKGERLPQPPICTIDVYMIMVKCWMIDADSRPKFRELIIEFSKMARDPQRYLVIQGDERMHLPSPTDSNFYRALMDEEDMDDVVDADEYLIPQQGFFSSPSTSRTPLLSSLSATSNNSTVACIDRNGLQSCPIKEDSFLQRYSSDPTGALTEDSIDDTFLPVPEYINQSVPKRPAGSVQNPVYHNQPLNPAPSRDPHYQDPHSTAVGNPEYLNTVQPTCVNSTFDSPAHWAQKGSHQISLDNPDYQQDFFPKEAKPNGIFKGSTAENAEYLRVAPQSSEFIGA

Question: Which IC50 (HER2) does the source give for C#Cc1cccc(Nc2ncnc3cc(OC)c(OCCCCCCC(=O)NO)cc23)c1 [CUDC-101, 7-(4-(3-ethynylphenylamino)-7-methoxyquinazolin-6-yloxy)-N-hydroxyheptanamide] here?
Answer: The IC50 was 15 nM.

Question: For O=C(Nc1cccc(Br)c1)Nc1ccc(Oc2ncnc3sc4c(c23)CCCCC4)cc1Cl [Compound E], which IC50 (EGFR; Figure 3) is on record?
Answer: The IC50 was 1260 nM.

Question: And the IC50 (VEGFR2; Figure 3, read-out: VEGFR2 IC50)?
Answer: Its IC50 is 15 nM.

Question: With COc1cc2ncnc(Nc3ccc(Br)cc3)c2cc1OCCCCCCC(=O)NO [compound B] as the compound, how does the IC50 (VEGFR2; Figure 2, read-out: VEGFR2 IC50) read?
Answer: The IC50 was 74 nM.

Question: And the IC50 (HDAC)?
Answer: The IC50 was 2.2 nM.

Question: With O=C(CCCCCCn1cc(-c2ccc3ncnc(Nc4ccc(Br)cc4F)c3c2)nn1)NO [compound C] as the compound, how does the IC50 (EGFR; Figure 2) read?
Answer: Its IC50 is 4.4 nM.

Question: And the IC50 (HDAC6)?
Answer: The IC50 was 6 nM.

Question: What about the IC50 (HDAC) of the same compound?
Answer: Its IC50 is 3.2 nM.

Question: For Vandetanib, which IC50 (VEGFR2; read-out: IC50 VEGFR-2) is on record?
Answer: The IC50 was 40 nM.
